Assay results from ChEMBL document CHEMBL1201862, “PubChem BioAssay data set” (2004).
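Dose response: 5 concentrations. Exposure: 48 h. Format: 96-well plates. Endpoint: linear interpolation; highest concentration if not reached. GI50 = concentration required for 50% inhibition of growth.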 The source made the active and inactive calls. No stated cut-off is given here; in the data, active = GI50 up to about 1.1 µM and inactive = higher.

Experiments:
Assay in all cases: NCI anticancer screen, dose series, 48 h
[1] = test system: CAKI-1
[2] = test system: DU-145
[3] = test system: HCC 2998
[4] = test system: HCT-116
[5] = test system: HOP-92
[6] = test system: K562
[7] = test system: M14
[8] = test system: PC-3
[9] = test system: RPMI-8226
[10] = test system: SF-268
[11] = test system: SF-295
[12] = test system: SF-539
[13] = test system: SK-MEL-5
[14] = test system: SN12C
[15] = test system: SNB-19
[16] = test system: SNB-75
[17] = test system: SR
[18] = test system: SW-620
[19] = test system: U-251
[20] = test system: UACC-62

Measured: GI50

COc1cc(OC)c(OC)cc1/C=N/N=C(\N)NO
inactive: [1] > 100 µM | [2] > 100 µM | [3] > 100 µM | [4] > 100 µM | [5] 77.6 µM | [6] 88.7 µM | [7] > 100 µM | [8] > 100 µM | [9] 68.9 µM | [10] > 100 µM | [11] 51.1 µM | [12] > 100 µM | [13] > 100 µM | [14] > 100 µM | [15] > 100 µM | [16] 21.9 µM | [17] > 100 µM | [18] > 100 µM | [19] > 100 µM | [20] > 100 µM

Oc1c2ccccc2c2c3c(cccc13)N=N2 [SP-600125]
inactive: [1] 3.56 µM | [2] 28.2 µM | [3] 9.62 µM | [4] 44.6 µM | [5] 37.6 µM | [6] 48.6 µM | [7] > 100 µM | [8] 23.3 µM | [9] 18.8 µM | [10] 18.5 µM | [11] 22.5 µM | [12] 32.2 µM | [13] 14.6 µM | [14] 14.8 µM | [15] 50 µM | [16] 16.9 µM | [17] 13.1 µM | [18] 10.9 µM | [19] 23.1 µM | [20] 14.6 µM
